Test results as given in patent US12661415B2, “Isoindolinone compounds and imaging agents for imaging Huntingtin protein” (CHDI Foundation, Inc., priority 2021, dated 2026).

Legend:
[1] = biological target: T1, MBP-HTT(1-89)Q46-His(6×) (Exon1-Q46) protein aggregates (Homo sapiens, UniProt P42858, INS38QQQQQQQQQQQQQQQQQQQQQQQQQ); experiment: Exon1-Q46 radioligand binding assay (RBA); details: aggregated Exon1-Q46 1 μM; 0.3 nM ligand [3H3-methyl]-5-((5-methoxypyridin-2-yl)methoxy)-2-(pyrazin-2-yl)benzo[d]oxazole; 60 minutes at 37° C.; read-out: Potency Range (IC50)
T1 construct: MBP-HTT(1-89)Q46-His(6×); His(6×) (C); made in house
Experimental: Exon1-Q46 Radioligand Binding Assay
For radioligand binding assays (RBA) MBP-HTT(1-89)Q46-His(6×) (“Exon1-Q46”) protein was generated based on a previous publication (Scherzinger et al. Cell, Vol. 90, 549-558, Aug. 8, 1997). For experiments 30 μM MBP-Exon1-Q46 was incubated with 150 μg/mL thrombin in assay buffer (150 mM NaCl, 50 mM Tris pH 8.0) and 2 mM CaCl2 for 16 hours at 37° C. Aggregated Exon1-Q46 was pelleted by centrifugation for 5 minutes at 13,000 rpm in a bench top centrifuge and re-dissolved in the same volume of assay buffer. Test compounds were prepared by titration in DMSO at 11 concentrations from 63 μM to 2 nM. For the RBA, Exon1-Q46 protein aggregates and test compounds were pre-incubated in assay buffer for 20 minutes at room temperature, in 100 μL/well in a 96-well plate (pp, round bottom). Then, ligand was added in 50 μL/well and incubated for 60 minutes at 37° C. Final assay concentrations were 1 μM to 30 pM test compound, 1 μM Exon1-Q46 protein (equivalent monomer concentration) and 0.3 nM ligand [^3H3-methyl]-5-((5-methoxypyridin-2-yl)methoxy)-2-(pyrazin-2-yl)benzo[d]oxazole. Samples were transferred onto GF/B filter plates and washed 2× with 200 μL PBS using a Filtermate Harvester. After drying filter plates for 1 hour at 55° C., the back of the plates were sealed with foil and 30 μL/well scintillation fluid (Packard MicroScint 40) added, incubated for 15 minutes in the dark and counted in a MicroBeta reader. For analysis, replicate data from independent assay plates were normalized towards 0% and 100% inhibition using control wells of vehicle (0% inhibition) and 1 μM unlabelled [^3H3-methyl]-5-((5-methoxypyridin-2-yl)methoxy)-2-(pyrazin-2-yl)benzo[d]oxazole (100% inhibition). IC50 values were determined with a sigmoidal inhibition model with four variables (top, bottom, slope, IC50) in a global fit using the normalized replicate data.
The results for various example compounds were as provided in the table below (+++<100 nM; ++100−500 nM; +>500 nM; ND: not determined): […]

[2] = Unbound brain fraction (fu,brain) in mouse brain by equilibrium dialysis; format: in vitro ADME; details: 20% mouse brain homogenate, 5 μM, equilibrium dialysis 6 h at 37° C., average of triplicate
Experimental: Compounds were tested for unbounded brain fraction (or free fraction in brain, fu,brain). It is an accepted standard in the CNS PET imaging field that compounds with low unbound fraction in brain (<5%) likely have high non-specific binding background that is undesirable for the detection of target binding. As a result, fu,brain is an important property in the design of PET ligands for brain imaging [see Zhang et al., Design and selection parameters to accelerate the discovery of novel central nervous system positron emission tomography (PET) ligands and their application in the development of a novel phosphodiesterase 2A PET ligand. J Med Chem 2013, 56 (11), 4568-79; Liu et al., Imaging Mutant Huntingtin Aggregates: Development of a Potential PET Ligand. J Med Chem 2020, 63 (15), 8608-8633].
Determining fu,brain in Mouse Brain by Equilibrium Dialysis. Dialysis membranes (12-14 kDa) (HTDialysis, Connecticut) were soaked in phosphate buffer (10 mM potassium phosphate and 0.8% sodium chloride buffer, pH 7.4 at 37° C.) for a minimum of 1 h, at this time ethanol was added (final concentration of 20% v/v) and membranes continued to soak for 30 min Mouse brain tissue was diluted in phosphate buffer in a […] (w/v) and homogenised using a Precellys 24 (Stretton Scientific, UK) to achieve a final concentration of 20% brain homogenate.
Test compounds prepared as DMSO stocks at 0.5 mM are diluted into brain homogenate to achieve 5 μM final substrate concentration (1% DMSO) and a t=0 sample was prepared by sampling 50 μL of into 400 μL of quench solution (Acetonitrile containing 0.1% formic acid and sulfisoxazole/tolbutamide/imipramine/labetalol 200 nM). Samples were matrix matched with the addition of 50 μL of assay buffer. The HTDialysis Teflon blocks (HTDialysis, Connecticut) were assembled with pre-soaked membrane between each receiver and donor well and clamped in the stainless steel pressure plate (HTDialysis, Connecticut). The lower compartment (acceptor side) was dosed with 120 μL of buffer and the upper compartment (donor side) was dosed with 120 μL of compound in homogenate. All test compounds and controls were completed in triplicate. The HT dialysis plate was sealed and incubated for 6 h at 37° C. shaking at 250 rpm.
Following the incubation, 50 μL of sample was removed from all donor and acceptor wells and transferred into a quench plate containing 400 μL of quench solution. All samples were matrix matched with 50 μL of the alternate blank matrix. Analytical samples were diluted 1:1 with water using the Janus Robot and analysed by LC-MS/MS.
Peak areas of donor and acceptor compartments were compared to determine percent unbound (% fu) and the average of triplicate measurements was reported. Reference T0 sample was used to calculate sample recovery (%). Control compounds were compared with historic and literature values to ensure assay functionality.

T1 sequence (P42858 with tags, fused parts or gaps with the stated changes): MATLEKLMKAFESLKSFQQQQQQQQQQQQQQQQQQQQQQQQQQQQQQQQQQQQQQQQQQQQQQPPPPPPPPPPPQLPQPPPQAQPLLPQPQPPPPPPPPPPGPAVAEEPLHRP

Cn1nc(N2Cc3cc(OCc4cc(Cl)c(F)cn4)ccc3C2=O)ccc1=O [Compound 2-3, 5-[(4-Chloro-5-fluoropyridin-2-yl)methoxy]-2-(1-methyl-6-oxo-1,6-dihydropyridazin-3-yl)-2,3-dihydro-1H-isoindol-1-one]
IC50 [1]: < 100 nM | Mean Free Brain Fraction (%) [2]: 2.7%

COc1ccc(COc2cc(F)c3c(c2)CN(c2ccc(=O)[nH]n2)C3=O)nc1 [Compound 10-2, 7-Fluoro-5-[(5-methoxypyridin-2-yl)methoxy]-2-(6-oxo-1,6-dihydropyridazin-3-yl)-2,3-dihydro-1H-isoindol-1-one]
IC50 [1]: < 100 nM | Mean Free Brain Fraction (%) [2]: 9.5%

COc1ccc(COc2cc(F)c3c(c2)CN(c2ccc(=O)n(C)n2)C3=O)nc1 [Compound 10-1, 7-Fluoro-5-[(5-methoxypyridin-2-yl)methoxy]-2-(1-methyl-6-oxo-1,6-di-hydropyridazin-3-yl)-2,3-dihydro-1H-isoindol-1-one]
IC50 [1]: < 100 nM | Mean Free Brain Fraction (%) [2]: 14.3%

Cn1nc(N2Cc3cc(OCc4ccc(F)cn4)cnc3C2=O)ccc1=O [Compound 12-7, 6-{3-[(5-Fluoropyridin-2-yl)methoxy]-7-oxo-5H,6H,7H-pyrrolo[3,4-b]pyridin-6-yl}-2-methyl-2,3-dihydropyridazin-3-one]
IC50 [1]: < 100 nM | Mean Free Brain Fraction (%) [2]: 67.8%

Cn1nc(N2Cc3cc(OCc4ccc(F)cn4)ccc3C2=O)ccc1=O [Compound 1-1, 5-((5-Fluoropyridin-2-yl)methoxy)-2-(1-methyl-6-oxo-1,6-dihydropyridazin-3-yl)isoindolin-1-one]
IC50 [1]: < 100 nM | Mean Free Brain Fraction (%) [2]: 12.0%

COc1ccc(COc2cc3c(cc2F)C(=O)N(c2ccc(=O)n(C)n2)C3)nc1 [Compound 12-1, 6-Fluoro-5-[(5-methoxypyridin-2-yl)methoxy]-2-(1-methyl-6-oxo-1,6-dihydropyridazin-3-yl)-2,3-dihydro-1H-isoindol-1-one]
IC50 [1]: < 100 nM | Mean Free Brain Fraction (%) [2]: 7.1%

COc1ccc(COc2cnc3c(c2)CN(c2ccc(=O)n(C)n2)C3=O)nc1 [Compound 12-5, 6-{3-[(5-Methoxypyridin-2-yl)methoxy]-7-oxo-5H,6H,7H-pyrrolo[3,4-b]pyridin-6-yl}-2-methyl-2,3-dihydropyridazin-3-one]
IC50 [1]: < 100 nM | Mean Free Brain Fraction (%) [2]: 37.0%

COc1ccc(COc2cc3c(cc2F)CN(c2cn(C)c(=O)cn2)C3=O)nc1 [Compound 14-1, 5-Fluoro-6-((5-methoxypyridin-2-yl)methoxy)-2-(4-methyl-5-oxo-4,5-dihydropyrazin-2-yl)isoindolin-1-one]
IC50 [1]: < 100 nM | Mean Free Brain Fraction (%) [2]: 15.5%

COc1ccc(COc2ccc3c(c2)CN(c2ccc(=O)[nH]n2)C3=O)nc1 [Compound 6-1, 5-[(5-Methoxypyridin-2-yl)methoxy]-2-(6-oxo-1,6-dihydropyridazin-3-yl)-2,3-dihydro-1H-isoindol-1-one]
IC50 [1]: < 100 nM | Mean Free Brain Fraction (%) [2]: 11.3%

COc1ccc(COc2cc(F)c3c(c2)C(=O)N(c2ccc(=O)[nH]n2)C3)nc1 [Compound 13-3, 4-Fluoro-6-[(5-methoxy-2-pyridyl)methoxy]-2-(6-oxo-1H-pyridazin-3-yl)isoindolin-1-one]
IC50 [1]: < 100 nM | Mean Free Brain Fraction (%) [2]: 6.2%

COc1cnc(COc2ccc3c(c2)CN(c2ccc(=O)n(C)n2)C3=O)cc1Cl [Compound 1-11, 5-[(4-Chloro-5-methoxypyridin-2-yl)methoxy]-2-(1-methyl-6-oxo-1,6-dihydropyridazin-3-yl)-2,3-dihydro-1H-isoindol-1-one]
IC50 [1]: < 100 nM | Mean Free Brain Fraction (%) [2]: 1.6%

COc1cnc(COc2ccc3c(c2)CN(c2ccc(=O)n(C)n2)C3=O)c(F)c1 [Compound 1-7, 5-[(3-Fluoro-5-methoxypyridin-2-yl)methoxy]-2-(1-methyl-6-oxo-1,6-dihydropyridazin-3-yl)-2,3-dihydro-1H-isoindol-1-one]
IC50 [1]: < 100 nM | Mean Free Brain Fraction (%) [2]: 11.9%

COc1ccc(COc2ccc3c(c2)C(=O)N(c2ccc(=O)n(C)n2)C3)nc1 [Compound 1-12, 6-[(5-Methoxypyridin-2-yl)methoxy]-2-(1-methyl-6-oxo-1,6-dihydropyridazin-3-yl)-2,3-dihydro-1H-isoindol-1-one]
IC50 [1]: < 100 nM | Mean Free Brain Fraction (%) [2]: 9.0%

Cn1nc(N2Cc3cc(OCc4ccc(I)cn4)ccc3C2=O)ccc1=O [Compound 1-3, 5-[(5-Iodopyridin-2-yl)methoxy]-2-(1-methyl-6-oxo-1,6-dihydropyridazin-3-yl)-2,3-dihydro-1H-isoindol-1-one]
IC50 [1]: < 100 nM | Mean Free Brain Fraction (%) [2]: 1.2%

COc1ccc(COc2cc3c(cc2F)CN(c2ccc(=O)[nH]n2)C3=O)nc1 [Compound 13-2, 5-Fluoro-6-[(5-methoxy-2-pyridyl)methoxy]-2-(6-oxo-1H-pyridazin-3-yl)isoindolin-1-one]
IC50 [1]: < 100 nM | Mean Free Brain Fraction (%) [2]: 6.5%

COc1cc(COc2ccc3c(c2)CN(c2ccc(=O)[nH]n2)C3=O)ncc1F [Compound 9-3, 5-((5-Fluoro-4-methoxypyridin-2-yl)methoxy)-2-(6-oxo-1,6-dihydropyridazin-3-yl)isoindolin-1-one]
IC50 [1]: < 100 nM | Mean Free Brain Fraction (%) [2]: 5.2%

COc1ccc2c(c1)CN(c1ccc(OCc3cccnc3)nc1)C2=O [Compound 11-1, 5-Methoxy-2-{6-[(pyridin-3-yl)methoxy]pyridin-3-yl}-2,3-dihydro-1H-isoindol-1-one]
IC50 [1]: < 100 nM | Mean Free Brain Fraction (%) [2]: 3.2%

COc1ccc(COc2ccc3c(c2)CN(c2ccc(=O)n(CCF)n2)C3=O)nc1 [Compound 8-2, 2-[1-(2-Fluoroethyl)-6-oxo-1,6-dihydropyridazin-3-yl]-5-[(5-methoxypyridin-2-yl)methoxy]-2,3-dihydro-1H-isoindol-1-one]
IC50 [1]: < 100 nM | Mean Free Brain Fraction (%) [2]: 9.0%

COc1ccc(COc2ccc3c(c2)CN(c2ccncc2)C3=O)nc1 [Compound 1-4, 5-[(5-Methoxypyridin-2-yl)methoxy]-2-(pyridin-4-yl)-2,3-dihydro-1H-isoindol-1-one]
IC50 [1]: < 100 nM | Mean Free Brain Fraction (%) [2]: 3.0%

[2H]C([2H])(F)C([2H])([2H])Oc1ccc(COc2ccc3c(c2)CN(c2ccc(=O)n(C)n2)C3=O)nc1 [Compound 1-8, 5-({5-[2-Fluoro(1,1,2,2-^2H4)ethoxy]pyridin-2-yl}methoxy)-2-(1-methyl-6-oxo-1,6-dihydropyridazin-3-yl)-2,3-dihydro-1H-isoindol-1-one]
IC50 [1]: < 100 nM | Mean Free Brain Fraction (%) [2]: 10.1%
